Values quoted from earlier work as cited in patent US20160243146A1, “LEVIA : A New Injectable Parasiticidal Veterinary Formulation of Levamisole HCl and Ivermectin Solution” (priority 2015, published 2016).

Columns and labels:
[1] = dissolved in propylene glycol solvent

Ivermectin
period of release into the blood [1]: up to 14 days
solubility in water (room temperature): about 0.005 mg per ml
stability in water (water): unstable in water
